Molecular target: T1, Human recombinant His-tagged PFKFB3 (Homo sapiens, UniProt Q16875)
T1 construct: His; made in house
Assay: PFKFB3 IC50 Determination Assay (in vitro kinase assay, modified ADP-Glo system)
Type: biochemical
Details: ATP 20 μM and fructose-6-phosphate 2 μM (Km), 25 nM PFKFB3, 2 h, rt, ADP-Glo luminescence
Protocol: PFKFB3 IC50 Determination Assay
In vitro kinase assay used to determine IC50 values for tested inhibitors is based on a modified ADP-Glo™ system (Promega) and consists of two parts:
1. Kinase reaction—performed in optimized conditions. At this step PFKFB3 phosphorylates its substrate Fructose-6-phosphate using ATP as a source of phosphate to produce Fructose-2,6-bisphosphate and ADP. Reaction is performed at Km values for ATP and substrate using optimized buffer composition and time of the reaction. Human recombinant His-tagged PFKFB3 (PFKFB3 BATCH II SEC) with confirmed activity is produced and purified in-house. 2. Detection of ADP as a product of the reaction using ADP-Glo™ system. This part is conducted by using the commercially available kit ADP-Glo™ Kinase Assay (Promega, cat. No# V9103) according to manufacturer's instruction, modified by 5x dilutions of assay reagents (both ADP-Glo™ Reagent and Kinase Detection Solution).
Test compounds are dissolved in DMSO and then transferred to the V-bottom 96-well plate.
15 μL per well of Mix 1 is transferred to assay wells of 96-well white plate. […] Total reaction volume is 30 μL per well. Samples are tested in duplicates. Final concentration of DMSO in the reaction is 6.7%. Conditions needed for performing PFKFB3 (PFKFB3 BATCH II SEC) in vitro kinase assay are given below:
This protocol is based on Technical Bulletin, ADP-Glo™ Kinase Assay (Promega) and is adapted to 96-well plate containing 30 μL reaction mixture:
30 μL of 5x diluted ADP-Glo™ Reagent is added to each well of 96-well plate containing 30 μL of reaction mixture. The plate is incubated for 90 minutes on a shaker at RT. 60 μL of 5x diluted Kinase Detection Solution is added to each well of 96-well plate containing 60 μL of the solution (ratio of kinase reaction volume to ADP-Glo™ Reagent volume to Kinase Detection Solution volume is maintained at 1:1:2). Plate is incubated for 40 minutes on a shaker at RT, protected from light. Luminescence is measured in the plate reader Synergy 2 (BioTek).
Luminescent readouts for compounds tested in 10 concentrations (routinely from 100 μM to […], […] serial dilutions) in duplicates, as well as for positive control, are first normalized to no-substrate negative control by its subtraction. In the next step, % of normalized positive control is calculated for each data point and plotted against test compound concentration:
% of control percent of positive control normalized to no-substrate negative control Lumcpd luminescence of test compound Lumneg luminescence of no-substrate negative control Lumpos luminescence of positive control
IC50 parameter is determined by the GraphPad Prism 5.0 software [log(inhibitor) vs. response −Variable slope (four parameters)].

T1 sequence (Q16875 whole entry): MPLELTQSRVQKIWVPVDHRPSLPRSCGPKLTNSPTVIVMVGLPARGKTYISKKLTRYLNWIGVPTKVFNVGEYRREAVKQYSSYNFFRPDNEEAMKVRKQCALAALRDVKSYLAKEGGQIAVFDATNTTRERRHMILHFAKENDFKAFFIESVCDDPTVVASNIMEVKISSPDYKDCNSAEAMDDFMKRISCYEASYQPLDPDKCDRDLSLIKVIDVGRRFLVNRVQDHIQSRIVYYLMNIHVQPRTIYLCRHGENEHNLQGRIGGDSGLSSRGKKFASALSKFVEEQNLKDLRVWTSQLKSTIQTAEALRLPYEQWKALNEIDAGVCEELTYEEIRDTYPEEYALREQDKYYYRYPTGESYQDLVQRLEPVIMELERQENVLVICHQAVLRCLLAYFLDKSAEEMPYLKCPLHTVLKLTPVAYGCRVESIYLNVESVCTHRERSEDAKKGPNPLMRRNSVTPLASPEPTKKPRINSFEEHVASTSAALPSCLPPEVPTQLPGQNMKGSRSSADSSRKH

| IC50 [nM] | Structure (SMILES) |
| --- | --- |
| 1000 to 10000 | COC(=O)c1ccc(S(C)(=O)=O)c(Nc2cc(-c3ccc4ccn(C)c4c3)c3nccnc3c2)c1 [Example 115, Methyl 4-methanesulfonyl-3-{[8-(1-methyl-1H-indol-6-yl)quinoxalin-6-yl]amino}benzoate] |
| 1 to 1000 | Cn1ccc2ccc(-c3cc(Nc4cc(C(N)=O)ccc4S(C)(=O)=O)cc4nccnc34)cc21 [Example 116, 4-Methanesulfonyl-3-{[8-(1-methyl-1H-indol-6-yl)quinoxalin-6-yl]amino}benzamide] |
| 1000 to 10000 | CS(=O)(=O)c1ccncc1Nc1cc(-c2ccc3n[nH]nc3c2)c2nccnc2c1 [Example 118, 8-(1H-1,2,3-Benzotriazol-5-yl)-N-(4-methanesulfonylpyridin-3-yl)quinoxalin-6-amine] |
| 1 to 1000 | Cn1ccc2ccc(-c3cc(Nc4cc(C(=O)NN)ccc4S(C)(=O)=O)cc4nccnc34)cc21 [Example 119, 4-Methanesulfonyl-3-{[8-(1-methyl-1H-indol-6-yl)quinoxalin-6-yl]amino}benzohydrazide] |
| 1000 to 10000 | CN(c1cc(-c2ccc3ccn(C)c3c2)c2nccnc2c1)c1cnccc1C(=O)Nc1cncnc1 [Example 125, 3-{Methyl[8-(1-methyl-1H-indol-6-yl)quinoxalin-6-yl]amino}-N-(pyrimidin-5-yl)pyridine-4-carboxamide] |
| 1000 to 10000 | Cn1ccc2ccc(-c3cc(Nc4cnccc4C(=O)NC4CCCCC4)cc4nccnc34)cc21 [Example 126, N-Cyclohexyl-3-{[8-(1-methyl-1H-indol-6-yl)quinoxalin-6-yl]amino}pyridine-4-carboxamide] |
| 10000 to 100000 | Cc1ccc(C(N)=O)c(-c2cc(Nc3cnccc3S(C)(=O)=O)cc3nccnc23)c1 [Example 128, 2-{7-[(4-methanesulfonylpyridin-3-yl)amino]quinoxalin-5-yl}-4-methylbenzamide] |
| 10000 to 100000 | CCOc1cccc(-c2cc(Nc3cnccc3S(C)(=O)=O)cc3nccnc23)c1 [Example 129, 8-(3-Ethoxyphenyl)-N-(4-methanesulfonylpyridin-3-yl)quinoxalin-6-amine] |
| 10000 to 100000 | CC(C)Oc1cccc(-c2cc(Nc3cnccc3S(C)(=O)=O)cc3nccnc23)c1 [Example 130, N-(4-Methanesulfonylpyridin-3-yl)-8-[3-(propan-2-yloxy)phenyl]quinoxalin-6-amine] |
| 1 to 1000 | CC(=O)N1CCOCC1CNC(=O)c1ccncc1Nc1cc(-c2ccc3ccn(C)c3c2)c2nccnc2c1 (centres unmarked) [Example 136, N-[(4-acetylmorpholin-3-yl)methyl]-3-{[8-(1-methyl-1H-indol-6-yl)quinoxalin-6-yl]amino}pyridine-4-carboxamide] |
| 1 to 1000 | CN1CCOC(CNC(=O)c2ccncc2Nc2cc(-c3ccc4ccn(C)c4c3)c3nccnc3c2)C1 (centres unmarked) [Example 137, 3-{[8-(1-methyl-1H-indol-6-yl)quinoxalin-6-yl]amino}-N-[(4-methylmorpholin-2-yl)methyl]pyridine-4-carboxamide] |
| 1 to 1000 | Cn1cncc1CNC(=O)c1ccncc1Nc1cc(-c2ccc3ccn(C)c3c2)c2nccnc2c1 [Example 143, N-[(1-methyl-1H-imidazol-5-yl)methyl]-3-{[8-(1-methyl-1H-indol-6-yl)quinoxalin-6-yl]amino}pyridine-4-carboxamide] |
| 1 to 1000 | Cn1ccc2ccc(-c3cc(Nc4cnccc4C(=O)NCc4cccnn4)cc4nccnc34)cc21 [Example 144, 3-{[8-(1-Methyl-1H-indol-6-yl)quinoxalin-6-yl]amino}-N-[(pyridazin-3-yl)methyl]pyridine-4-carboxamide] |
| 1000 to 10000 | Cn1ccc2ccc(-c3cc(Nc4ccncc4C#N)cc4nccnc34)cc21 [Example 145, 4-{[8-(1-Methyl-1H-indol-6-yl)quinoxalin-6-yl]amino}pyridine-3-carbonitrile] |
| 10000 to 100000 | N#Cc1cnccc1Nc1cc(Cl)c2nccnc2c1 [Example 146, 4-[(8-chloroquinoxalin-6-yl)amino]pyridine-3-carbonitrile] |
| 1 to 1000 | Cn1ccc2ccc(-c3cc(Nc4cncnc4C(N)=O)cc4nccnc34)cc21 [Example 149, 5-{[8-(1-methyl-1H-indol-6-yl)quinoxalin-6-yl]amino}pyrimidine-4-carboxamide] |

| IC50 [nM] | Structure (SMILES) |
| --- | --- |
| 1 to 1000 | Cc1csc2ccc(-c3cc(Nc4cnccc4C#N)cc4nccnc34)cc12 [Example 150, 3-{[8-(3-Methyl-1-benzothiophen-5-yl)quinoxalin-6-yl]amino}pyridine-4-carbonitrile] |
| 1000 to 10000 | COc1ccc(C)c(-c2cc(Nc3cnccc3S(C)(=O)=O)cc3nccnc23)c1 [Example 153, N-(4-Methanesulfonylpyridin-3-yl)-8-(5-methoxy-2-methylphenyl)quinoxalin-6-amine] |
| 1 to 1000 | Cn1ccc2ccc(-c3cc(Nc4cnccc4C(=O)Oc4ccnc(N)n4)cc4nccnc34)cc21 [Example 160, 2-Aminopyrimidin-4-yl3-{[8-(1-methyl-1H-indol-6-yl)quinoxalin-6-yl]amino}pyridine-4-carboxylate] |
| 1000 to 10000 | CS(=O)(=O)c1ccncc1Nc1cc(-c2ccc3sncc3c2)c2nccnc2c1 [Example 161, 8-(1,2-Benzothiazol-5-yl)-N-(4-methanesulfonylpyridin-3-yl)quinoxalin-6-amine] |
| 10000 to 100000 | CS(=O)(=O)c1ccncc1Nc1cc(-c2ccc(NC(=O)C3CCCN3)cc2)c2nccnc2c1 (centres unmarked) [Example 164, N-(4-{7-[(4-methanesulfonylpyridin-3-yl)amino]quinoxalin-5-yl}phenyl)pyrrolidine-2-carboxamide] |
| 10000 to 100000 | CS(=O)(=O)c1ccncc1Nc1cc(-c2cccc(NC(=O)C3CCCN3)c2)c2nccnc2c1 (centres unmarked) [Example 165, N-(3-{7-[(4-Methanesulfonylpyridin-3-yl)amino]quinoxalin-5-yl}phenyl)pyrrolidine-2-carboxamide] |
| 10000 to 100000 | Cn1nnc2cc(-c3cc(Nc4cnccc4S(C)(=O)=O)cc4nccnc34)ccc21 [Example 167, N-(4-methanesulfonylpyridin-3-yl)-8-(1-methyl-1H-1,2,3-benzotriazol-5-yl)quinoxalin-6-amine] |
| 10000 to 100000 | Cc1nc2cc(-c3cc(Nc4cnccc4S(C)(=O)=O)cc4nccnc34)ccc2s1 [Example 169, N-(4-methanesulfonylpyridin-3-yl)-8-(2-methyl-1,3-benzothiazol-5-yl)quinoxalin-6-amine] |
| 10000 to 100000 | Cn1nnc2ccc(-c3cc(Nc4cnccc4S(C)(=O)=O)cc4nccnc34)cc21 [Example 170, N-(4-Methanesulfonylpyridin-3-yl)-8-(1-methyl-1H-1,2,3-benzotriazol-6-yl)quinoxalin-6-amine] |
| 1 to 1000 | CS(=O)(=O)c1ccncc1Nc1cc(-c2ccc3nc(N)sc3c2)c2nccnc2c1 [Example 174, 8-(2-Amino-1,3-benzothiazol-6-yl)-N-(4-methanesulfonylpyridin-3-yl)quinoxalin-6-amine] |
| 1 to 1000 | CN(C)Cc1ccncc1Nc1cc(-c2ccc3ccn(C)c3c2)c2nccnc2c1 [Example 175, N-{4-[(dimethylamino)methyl]pyridin-3-yl}-8-(1-methyl-1H-indol-6-yl)quinoxalin-6-amine] |
| 1 to 1000 | CN(C)Cc1ccccc1Nc1cc(-c2ccc3ccn(C)c3c2)c2nccnc2c1 [Example 176, N-{2-[(Dimethylamino)methyl]phenyl}-8-(1-methyl-1H-indol-6-yl)quinoxalin-6-amine] |
| 1 to 1000 | Cn1ccc2ccc(-c3cc(Nc4ccccc4C(=O)O)cc4nccnc34)cc21 [Example 178, 2-{[8-(1-Methyl-1H-indol-6-yl)quinoxalin-6-yl]amino}benzoic acid] |
| 1 to 1000 | Cn1ccc2ccc(-c3cc(Nc4cnccc4C(=O)O)cc4nccnc34)cc21 [Example 179, 3-{[8-(1-Methyl-1H-indol-6-yl)quinoxalin-6-yl]amino}pyridine-4-carboxylic acid] |
| 1 to 1000 | CN1CCC(NC(=O)c2ccccc2Nc2cc(-c3ccc4ccn(C)c4c3)c3nccnc3c2)C1 (centres unmarked) [Example 183, 2-{[8-(1-Methyl-1H-indol-6-yl)quinoxalin-6-yl]amino}-N-(1-methylpyrrolidin-3-yl)benzamide] |
| 1 to 1000 | CS(=O)(=O)c1ccncc1Nc1cc(-c2ccc(N)c(F)c2)c2nccnc2c1 [Example 186, 8-(4-Amino-3-fluorophenyl)-N-(4-methanesulfonylpyridin-3-yl)quinoxalin-6-amine] |
